These results are taken from patent publication US20120207856A1, “MSH3 Expression Status Determines the Responsiveness of Cancer Cells to the Chemotherapeutic Treatment with PARP Inhibitors and Platinum Drugs” (Baylor Research Institute, priority 2011, published 2012).

One assay deals with HHUA cells. The note with it: MSH3-deficient HHUA versus MSH3-proficient HHUA complemented with chromosome 5; cited from earlier work.
The test system of assay [1] is HCT116+3+5 and G5 cells. Description: Clonogenic survival after MLH1 siRNA transfection. The assay is classed as cell-based, human.
The subject of a further assay is HT29 cells. As to the kind of experiment: Clonogenic survival after transient MSH3 siRNA transfection. The assay is classed as cell-based, human. The note with it: HT29 cells treated with MSH3 siRNA versus non-targeted siRNA; FIGS. 3E & 3F.
The subject of another assay is 53BP1. As to the kind of experiment: Immunofluorescence staining for 53BP1 foci. The assay is classed as cell-based, human. The settings on record: MSH3-deficient G5 cells after treatment; 5 μM for 6 hours, analyzed after 48 hours; FIGS. 5C & 5D. The procedure:
(§1) Immunofluorescence staining—Ten thousand cells were grown on glass coverslips in a 12-well plate. The cells were fixed with 4% paraformaldehyde (pH 7.5) in PBS for 15 minutes, permeabilized with 0.3% Triton X-100 for five minutes, and then blocked with 10% goat serum (Invitrogen, Carlsbad, Calif.) for one hour. The cells were subsequently incubated with an anti-active caspase-3 antibody (1:500, G748, Promega, Madison, Wis.) an anti-phosphorylated H2AX (pH2AX) antibody (1:5000, JBW301, Millipore Corporation, Billerica, Mass.), or an anti-53BP1 antibody (1:600, ab21083, Abcam, Cambridge, Mass.) for one hour, followed by a secondary antibody (1:800, Alexa Fluor 555 goat anti-mouse or anti-rabbit antibody, Invitrogen) for 40 minutes. Prolong Gold with DAPI (Invitrogen) was used in mounting the medium. The images were obtained using AxioSkop2 multichannel epifluorescence microscope equipped with the AxioVision software (Carl Zeiss, Thornwood, N.Y.).

For assay [2], the system named is HCT116, HCT116+3, HCT116+3+5, G1, G2 and G5 cells. As to the kind of experiment: Clonogenic survival assay in isogenic HCT116-derived cell lines. The class given is cell-based, human. The procedure:
(§2) Cell lines and cell culture—The human colon cancer cell lines HCT116, HCT116+ch.3 (HCT116+3), HCT116+ch.3+ch.5 (HCT116+3+5) have been described previously (10,23). HCT116+3+5 cells were stably transfected with a tetracycline-regulated retroviral vector, the TMP (Open Biosystems, Huntsville, Ala.) that encodes shRNA against MSH3. Stable MSH3-deficient clones G1, G2 and G5 were isolated (see results and (23)). HCT116, HCT116+3, and HCT116+3+5 cells were grown in IMDM (Invitrogen, Rockville, Md.) with 10% fetal bovine serum. The G1, G2 and G5 cells were maintained in IMDM with 10% fetal bovine serum and 0.6 μg/ml of puromycin. To turn off the expression of MSH3 shRNA, 1 μg/ml of doxycycline was added to the culture medium.
Clonogenic survival assay—Two hundred cells were seeded in each well of a six-well plate. For the measurement of the cytotoxicity caused by cisplatin or oxaliplatin, the cells were treated with the drugs for 24 hours once the cells were attached to the plate. For the measurement of the cytotoxicity caused by olaparib, cells were continuously treated with the drug during the experiments. After 8-10 days, the number of colonies (colonies with >50 cells) were counted, and the relative change in clonogenic survival of drug-treated versus untreated cells was determined.

Assay [3] has as its system HCT116+3+5 and G5 cells. As to the kind of experiment: Immunofluorescence staining for active caspase-3. The class given is cell-based, human. The note with it: MSH3-deficient cells, FIG. 2H. The procedure:
as §1

For another assay, the system named is HCT116+3+5 cells. As to the kind of experiment: Clonogenic survival after transient MSH3 siRNA transfection. The class given is cell-based, human. The settings on record: MSH3 siRNA versus non-targeted siRNA; cisplatin 5 μM and 10 μM, oxaliplatin 2 μM and 5 μM, 48 hours after transfection; FIGS. 3B & 3C.
Assay [4] relates to HCT116+3+5 and G5 cells. Description: Proliferation assay (BrdU incorporation). The note with it: MSH3-deficient cells; FIG. 2G. The assay is classed as cell-based, human. The procedure:
Proliferation assay—The proliferation index was measured by bromodeoxyuridine (BrdU) incorporation in HCT116+3+5 and G5 cells, 48 hours after the initial 24 hour treatment with cisplatin or oxaliplatin (Cell Proliferation ELISA, BrdU, Roche Diagnositics, Indianapolis, Ind.). Experiments were performed in triplicate and data was obtained from three or four independent experiments.
In general terms: Dividing cells build labelled thymidine or BrdU into new DNA.

Another assay relates to pH2AX. Description: Immunofluorescence staining for pH2AX foci. The assay is classed as cell-based, human. As for the experimental part: as §1
The subject of a further assay is HCT116+3+5 and G1 cells. As to the kind of experiment: Cell cycle analysis by flow cytometry. The settings on record: MSH3-deficient versus MSH3-proficient cells. The class given is cell-based, human. The procedure: Cell cycle analysis—One million cells were seeded in 10 cm plates. Once attached, the cell lines were treated with oxaliplatin for 24 hours. After an additional 48 hours, cells were washed twice with cold PBS, fixed in cold 70% ethanol at −20° C. overnight or for several days. The ethanol fixed cells (2×10^6) were subsequently washed with PBS twice and incubated with 300 μl of PBS and 0.15% RNase A for 15 minutes at 37° C. The cells were stained with 75 μg/ml propidium iodide for 30 minutes and then analyzed for DNA content using the FACSCantoII flow cytometer (BD Biosciences, San Jose, Calif.). Cell cycle data was analyzed by the Flowjo software (Tree Star, Ashland, Oreg.).

For another assay, the system named is MSH3. As to the kind of experiment: Western blot analysis of MSH3 expression. The class given is cell-based, human. The note with it: G1, G2 and G5 clones; doxycycline 1 μg/ml; densitometry; FIGS. 1A & 1B. The procedure:
as §2
Western blot analysis—Proteins from cell lysates were prepared, separated on the SDS-PAGE and transferred to PVDF membranes as described previously (31). Anti-hMSH3 mouse monoclonal antibody (dilution; 1:250, Clone 52, BD Pharmingen, San Jose, Calif.), anti-hMLH1 mouse monoclonal antibody (1:200, G168-728, BD Pharmingen) and anti-β-actin antibody (1:10000, Clone AC-15, Sigma-Aldrich) were used as primary antibodies for the detection of specific proteins. Goat anti-mouse antibody (1:3000, sc-2005, Santa Cruz Biotechnology, Santa Cruz, Calif.) was used as a secondary antibody. […]
In general terms: Immunoblotting shows a protein as a band on a membrane.

The next assay has as its system MSH3-deficient cells. As to the kind of experiment: Sensitivity of MSH3-deficient cells to SN-38 (data not shown). The assay is classed as cell-based.
The test system of assay [5] is tumors occurring in MSH2-null mice. The note with it: MSH2-null mice versus mice with MSH2 G674D mutations; cited from earlier work.

Molecules are shown by their SMILES. Like-named read-outs stand apart in the source and are kept apart here.

As to `O=C1[O][Pt]2([NH][C@@H]3CCCC[C@H]3[NH]2)[O]C1=O` [oxaliplatin], the sensitivity result with HHUA cells is “did not differ”. Moreover, the “sensitivity (clonogenic survival)” value is recorded as “more sensitive” in the assay on HCT116+3+5 and G5 cells [1]; “more sensitive” in the assay on HT29 cells; “significantly more sensitive” in [2] (MSH3-deficient HCT116, HCT116+3 and G5 versus parental HCT116+3+5, FIG. 2C). For the same compound, in the assay with 53BP1, the “levels of 53BP1” value is recorded as “Sustained levels”. Besides, the “sensitivity (clonogenic survival) on restoration of MSH3” value in assay [2] (MSH3-deficient cells (G1, G2, G5) with versus without doxycycline 1 μg/ml, FIG. 2D) is reported as “restoration of oxaliplatin insensitivity”. Moreover, the “apoptotic fraction (anti-active caspase-3 positive cells)” value in the assay on HCT116+3+5 and G5 cells [3] was “increased”. Also, the “susceptibility (clonogenic survival)” value with HCT116+3+5 cells is “more susceptible”. Besides, the “cell proliferation (BrdU incorporation)” value with HCT116+3+5 and G5 cells [4] is on record as “decreased”. In the assay on pH2AX (MSH3-deficient G5 versus MSH3-restored G5 and HCT116+3+5, 48 and 72 hours, FIGS. 5A & 5B), the “rate of reduction in the number of pH2AX foci-positive cells” value is “lower rate of reduction”. Further, the “number of pH2AX foci-positive cells before and after treatment” value in the assay on pH2AX (MSH3-proficient versus -deficient cell lines, 5 μM for 6 hours) was “no differences”. Also, the “degree of cell growth inhibition (decrease in S-phase population)” value with HCT116+3+5 and G1 cells (FIG. 2E) is “significantly higher”. Moreover, the “levels of apoptosis (increase in sub-G1 population)” value in the assay on HCT116+3+5 and G1 cells (FIG. 2F) was “significantly higher”.
Consider `C[C@H]1c2cccc(O)c2C(=O)C2=C(O)[C@]3(O)C(=O)C(C(N)=O)=C(O)[C@@H](N(C)C)[C@@H]3[C@@H](O)[C@@H]21` [doxycycline], for which, in the assay with MSH3, the “MSH3 expression relative to parental HCT116+3+5” value is 40-60%.
In the case of `CCc1c2c(nc3ccc(O)cc13)-c1cc3c(c(=O)n1C2)COC(=O)[C@]3(O)CC` [SN-38], the “sensitization by MSH3 deficiency” value in the assay with MSH3-deficient cells is listed as “sensitized”.
Take `N.N.[Cl][Pt][Cl]` [cisplatin]: in the assay on HHUA cells, the sensitivity result is reported as “did not differ”. Moreover, the “sensitivity (clonogenic survival)” value with HCT116+3+5 and G5 cells [1] (G5 versus HCT116+3+5, MLH1 down-regulated by siRNA, 2 μM and 5 μM, FIGS. 4C & 4D) is “more sensitive”; in the assay with HT29 cells, “more sensitive”; in [2] (G1 and G2 clones, data not shown), “behaved similarly to G5”; in [2] (HCT116 versus HCT116+3 cell lines, FIG. 2A), “No significant differences”; in [2] (MSH3-deficient G5 clone versus parental HCT116+3+5, FIG. 2A), “more sensitive”. Further, the “sensitivity (clonogenic survival) on restoration of MSH3 expression” value in assay [2] (G5 cells with versus without doxycycline, 5 μM, FIG. 2B) is “desensitized”. The “resistance (clonogenic survival)” value in [2] (MSH3-proficient HCT116+3+5 versus HCT116 and HCT116+3, FIG. 2A) is listed as “higher resistance”. In assay [5], the resistance of tumors entry was “more resistant”. The “susceptibility (clonogenic survival)” value in the assay with HCT116+3+5 cells is “more susceptible”.
Regarding `O=C(c1cc(Cc2n[nH]c(=O)c3ccccc23)ccc1F)N1CCN(C(=O)C2CC2)CC1` [olaparib], the “sensitivity (clonogenic survival)” value in [2] (MSH3-deficient G5 versus MSH3-restored G5 cell line, 2 μM, FIG. 6A) is reported as “more sensitive”.
